Experimental data reported in PubChem BioAssay (NCI).
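Growth conditions: 96-well plates. Treatment: test compound, 48 hours, 5 concentrations. Analysis: linear interpolation between bracketing concentrations; unreached endpoints set to highest concentration. TGI is the concentration that stops growth completely.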

Key:
Assay in all cases: DTP human tumour cell line panel, 48 h
HCT-116 colon = test system: HCT-116 colon
M19-MEL melanoma = test system: M19-MEL melanoma
KM20L2 colon = test system: KM20L2 colon
OVCAR-5 ovarian = test system: OVCAR-5 ovarian
HT29 colon = test system: HT29 colon
UO-31 renal = test system: UO-31 renal
SNB-75 CNS = test system: SNB-75 CNS
MALME-3M melanoma = test system: MALME-3M melanoma
COLO 205 colon = test system: COLO 205 colon
SK-MEL-2 melanoma = test system: SK-MEL-2 melanoma
SNB-78 CNS = test system: SNB-78 CNS
K-562 leukemia = test system: K-562 leukemia
OVCAR-4 ovarian = test system: OVCAR-4 ovarian
NCI-H522 lung = test system: NCI-H522 lung
SK-OV-3 ovarian = test system: SK-OV-3 ovarian
IGROV1 ovarian = test system: IGROV1 ovarian
SF-268 CNS = test system: SF-268 CNS
U251 CNS = test system: U251 CNS
UACC-257 melanoma = test system: UACC-257 melanoma
ACHN renal = test system: ACHN renal
NCI-H23 lung = test system: NCI-H23 lung
CCRF-CEM leukemia = test system: CCRF-CEM leukemia
SNB-19 CNS = test system: SNB-19 CNS
SF-539 CNS = test system: SF-539 CNS
NCI-H460 lung = test system: NCI-H460 lung
LXFL 529 NSCLC = test system: LXFL 529 NSCLC
RPMI-8226 leukemia = test system: RPMI-8226 leukemia
HL-60(TB) leukemia = test system: HL-60(TB) leukemia
786-0 renal = test system: 786-0 renal
SR leukemia = test system: SR leukemia
HOP-62 NSCLC = test system: HOP-62 NSCLC
M14 melanoma = test system: M14 melanoma
KM12 colon = test system: KM12 colon
RXF 393 renal = test system: RXF 393 renal
SF-295 CNS = test system: SF-295 CNS
HOP-92 NSCLC = test system: HOP-92 NSCLC
SK-MEL-28 melanoma = test system: SK-MEL-28 melanoma
A498 renal = test system: A498 renal
UACC-62 melanoma = test system: UACC-62 melanoma
HCT-15 colon = test system: HCT-15 colon
SN12C renal = test system: SN12C renal
DU-145 prostate = test system: DU-145 prostate
MDA-N = test system: MDA-N
BT-549 breast = test system: BT-549 breast
LOX IMVI melanoma = test system: LOX IMVI melanoma
HS 578T breast = test system: HS 578T breast
SW-620 colon = test system: SW-620 colon
SK-MEL-5 melanoma = test system: SK-MEL-5 melanoma
MDA-MB-231 breast = test system: MDA-MB-231 breast
MCF7 breast = test system: MCF7 breast
A549 NSCLC = test system: A549 NSCLC
PC-3 prostate = test system: PC-3 prostate
NCI/ADR-RES ovarian = test system: NCI/ADR-RES ovarian
TK-10 renal = test system: TK-10 renal
MDA-MB-435 = test system: MDA-MB-435
CAKI-1 renal = test system: CAKI-1 renal
NCI-H226 lung = test system: NCI-H226 lung
HCC-2998 colon = test system: HCC-2998 colon
EKVX NSCLC = test system: EKVX NSCLC
T-47D breast = test system: T-47D breast
OVCAR-8 ovarian = test system: OVCAR-8 ovarian
MOLT-4 leukemia = test system: MOLT-4 leukemia

COc1ccc2c(c1)CC[C@@H]1C2CC[C@]2(C)C(=O)N(CCN3CCCCC3)C(=O)CC12 (some centres undefined)
TGI (HCT-116 colon): > 100 µM | TGI (M19-MEL melanoma): > 100 µM | TGI (KM20L2 colon): > 100 µM | TGI (OVCAR-5 ovarian): > 100 µM | TGI (HT29 colon): > 100 µM | TGI (UO-31 renal): > 100 µM | TGI (SNB-75 CNS): > 100 µM | TGI (MALME-3M melanoma): > 100 µM | TGI (COLO 205 colon): > 100 µM | TGI (SK-MEL-2 melanoma): > 100 µM | TGI (SNB-78 CNS): > 100 µM | TGI (K-562 leukemia): > 100 µM | TGI (OVCAR-4 ovarian): > 100 µM | TGI (NCI-H522 lung): > 100 µM | TGI (SK-OV-3 ovarian): > 100 µM | TGI (IGROV1 ovarian): > 100 µM | TGI (SF-268 CNS): > 100 µM | TGI (U251 CNS): > 100 µM | TGI (UACC-257 melanoma): 63.4 µM | TGI (ACHN renal): > 100 µM | TGI (NCI-H23 lung): > 100 µM | TGI (CCRF-CEM leukemia): > 100 µM | TGI (SNB-19 CNS): > 100 µM | TGI (SF-539 CNS): > 100 µM | TGI (NCI-H460 lung): > 100 µM | TGI (LXFL 529 NSCLC): > 100 µM | TGI (RPMI-8226 leukemia): > 100 µM | TGI (HL-60(TB) leukemia): 61.1 µM | TGI (786-0 renal): > 100 µM | TGI (SR leukemia): > 100 µM | TGI (HOP-62 NSCLC): > 100 µM | TGI (M14 melanoma): 48.9 µM | TGI (KM12 colon): > 100 µM | TGI (RXF 393 renal): 99.2 µM | TGI (SF-295 CNS): > 100 µM | TGI (HOP-92 NSCLC): > 100 µM | TGI (SK-MEL-28 melanoma): > 100 µM | TGI (A498 renal): > 100 µM | TGI (UACC-62 melanoma): 41.7 µM

CCSC1=C(C#N)C2(CCCCC2)C2=C(CC(C)(C)CC2=O)N1
TGI (HCT-15 colon): > 100 µM | TGI (HCT-116 colon): > 100 µM | TGI (SN12C renal): > 100 µM | TGI (OVCAR-5 ovarian): > 100 µM | TGI (HT29 colon): > 100 µM | TGI (UO-31 renal): 39.8 µM | TGI (SNB-75 CNS): 71.1 µM | TGI (DU-145 prostate): 60.8 µM | TGI (MALME-3M melanoma): 78.2 µM | TGI (COLO 205 colon): > 100 µM | TGI (MDA-N): > 100 µM | TGI (BT-549 breast): 60.1 µM | TGI (LOX IMVI melanoma): > 100 µM | TGI (HS 578T breast): > 100 µM | TGI (SK-MEL-2 melanoma): > 100 µM | TGI (SW-620 colon): > 100 µM | TGI (K-562 leukemia): > 100 µM | TGI (SK-MEL-5 melanoma): > 100 µM | TGI (MDA-MB-231 breast): > 100 µM | TGI (OVCAR-4 ovarian): 73.2 µM | TGI (NCI-H522 lung): > 100 µM | TGI (MCF7 breast): > 100 µM | TGI (IGROV1 ovarian): > 100 µM | TGI (A549 NSCLC): > 100 µM | TGI (SF-268 CNS): > 100 µM | TGI (PC-3 prostate): > 100 µM | TGI (U251 CNS): > 100 µM | TGI (UACC-257 melanoma): > 100 µM | TGI (NCI/ADR-RES ovarian): > 100 µM | TGI (ACHN renal): 74.2 µM | TGI (NCI-H23 lung): > 100 µM | TGI (TK-10 renal): > 100 µM | TGI (MDA-MB-435): > 100 µM | TGI (CCRF-CEM leukemia): > 100 µM | TGI (SNB-19 CNS): 76.2 µM | TGI (CAKI-1 renal): > 100 µM | TGI (SF-539 CNS): > 100 µM | TGI (NCI-H460 lung): 21.2 µM | TGI (NCI-H226 lung): > 100 µM | TGI (HCC-2998 colon): > 100 µM | TGI (RPMI-8226 leukemia): > 100 µM | TGI (HL-60(TB) leukemia): > 100 µM | TGI (786-0 renal): > 100 µM | TGI (SR leukemia): > 100 µM | TGI (EKVX NSCLC): 68.4 µM | TGI (M14 melanoma): > 100 µM | TGI (KM12 colon): > 100 µM | TGI (RXF 393 renal): > 100 µM | TGI (T-47D breast): > 100 µM | TGI (OVCAR-8 ovarian): > 100 µM | TGI (HOP-92 NSCLC): 43.1 µM | TGI (SK-MEL-28 melanoma): > 100 µM | TGI (A498 renal): 64.6 µM | TGI (MOLT-4 leukemia): > 100 µM | TGI (UACC-62 melanoma): > 100 µM
